Reference: patent US20030133918A1, “Methods for ex vivo propagation of somatic stem cells” (priority 2001, published 2003)

What was measured:
Xs-D lines = experiment: Albumin induction in adherent culture under conditions of quiescence; type: cell-based, rat; conditions: added to standard quiescence-induction protocol (confluency, 1% serum)
Excerpt: In vivo, cell differentiation in somatic tissues has two important cell kinetics features. First, it occurs after a fixed number of cell divisions from the stem cell stage; and second, cells undergo a cell kinetics arrest before terminal differentiation occurs (Potten and Morris, 1988). Ideally, we wanted to mimic this process in culture with cells dividing with asymmetric stem cell kinetics. However, there was concern whether in vitro asymmetric divisions would be in appropriate balance with non-dividing cells. So, we decided to augment the growth arrest by growing cells to confluency in either Xs-free or Xs-containing medium and then inducing a total quiescent state by reducing the serum concentration to 1%. Many in vitro cell models have been described that undergo differentiation upon serum reduction.
The most dramatic differentiation result obtained in the adherent culture studies was the induction of albumin expression in Xs-D lines under conditions of quiescence (See example in FIG. 4). […] Three other treatments were added to the standard quiescence-induction protocol to evaluate their effect on albumin induction. These were DMSO to mimic glucocorticoid effects, growth on collagen as a form of extracellular matrix, and glucose-removal as noted above for its differentiation effects on gastrointestinal cell lines. […]

[1] = system: freshly harvested murine bone marrow cells; experiment: Bone marrow colony formation in soft agar (fresh bone marrow); type: cell-based; conditions: fresh bone marrow cells; type I, II, III colonies
Method: The following numbers of freshly harvested murine bone marrow cells were plated in soft agar in replicates of 6 in 6-well plates: 1×10^5, 5×10^5, or 1×10^6. After 1-3 weeks, type I, II, and III colonies (see FIG. 2 for examples) were enumerated by phase microscopy.
Because of the difficulties anticipated in cloning Xs-dependent cells from heterogenous long-term bone marrow cultures, we decided to adopt a soft agar culture strategy. It is well known that hematopoietic progenitor cells will form colonies when grown in semi-solid medium (Dexter et al., 1984). […] In many bone marrow cell studies, conditions are selected to induce bone marrow cell differentiation. Methyl-cellulose or soft agar supplemented with lineage-promoting growth factors are widely used experimental systems (Dexter et al., 1984). For ideal SACK, we wished to minimize stimuli for differentiation. Therefore, we used agar developed in routine horse serum-supplemented long-term culture medium, without any additional growth factor source, as the gel medium for our studies. We followed procedures developed for detecting anchorage-independent growth of transformed tumor cells.
Given their associated HSC activity, LT-CFCs are predicted to divide with asymmetric cell kinetics. We evaluated whether Xs would increase the frequency of LT-CFC type I colonies in soft agar. Freshly prepared bone marrow cells were plated in soft agar developed in either control medium or medium containing 1 mM or 3 mM Xs.

[2] = system: p53-inducible model cells; conditions: published studies (Sherley, 1991); cited from earlier work

Row | Structure (SMILES) | Effect on degree/induction of albumin expression (Xs-D lines) | Effect on frequency of colony types in soft agar [1] | Effectiveness as SACK agent compared with Xs [2]
1 | C[S+](C)[O-] [DMSO] | no noticeable effect |  | 
2 | O=c1[nH]cnc2nc[nH]c12 [Hx, hypoxanthine] |  | increased the frequency of type II and III colonies at the expense of type I colonies | not as effective a SACK agent as Xs
